Measured values as given in the NIST ThermoML archive (doi:10.1016/j.fluid.2013.07.061).
Numbers after ± are expanded uncertainties.

Key:
[1] = DTA; for Normal melting temperature: Crystal 1
[2] = Molar enthalpy of transition or fusion; conditions: DSC

Row | Normal melting temperature [1] | Triple point temperature ([1]; Crystal 2) | Triple point temperature ([1]; Crystal 3) | Molar enthalpy of transition or fusion ([2]; Crystal 1) | Molar enthalpy of transition or fusion ([2]; Crystal 2) | Molar enthalpy of transition or fusion ([2]; Crystal 3) | Structure (SMILES)
1 | 95.1 ± 0.4 °C | 350.96 ± 0.39 K | 310.6 ± 0.73 K | 1.23 ± 0.0454 kcal/mol | 0.664 ± 0.0335 kcal/mol | 1.89 ± 0.1 kcal/mol | CCC[N+]1(C)CCCCC1.F[P-](F)(F)(F)(F)F [1-methyl-1-propylpiperidinium hexafluorophosphate]
2 | 110.5 ± 1.4 °C | 360.88 ± 1.7 K | 348.58 ± 1.3 K | 0.875 ± 0.0765 kcal/mol | 0.55 ± 0.0478 kcal/mol | 0.66 ± 0.0502 kcal/mol | CCC[N+]1(C)CCCC1.F[P-](F)(F)(F)(F)F [1-methyl-1-propylpyrrolidinium hexafluorophosphate]
3 | 251.1 ± 0.9 °C | 360.7 ± 0.7 K | 303.95 ± 0.39 K | 3.92 ± 0.153 kcal/mol | 0.492 ± 0.55 kcal/mol | 0.502 ± 0.0526 kcal/mol | CCCC[N+](CCCC)(CCCC)CCCC.F[P-](F)(F)(F)(F)F [tetrabutylammonium hexafluorophosphate]
4 | 225.5 ± 0.4 °C |  | 265.37 ± 0.39 K | 3.51 ± 0.0884 kcal/mol |  | 0.433 ± 0.0335 kcal/mol | CCCC[P+](CCCC)(CCCC)CCCC.F[P-](F)(F)(F)(F)F [tetrabutylphosphonium hexafluorophosphate]
